Data on 7 compounds can be found in the RepoRT retention time repository (doi:10.1016/j.jchromb.2020.122105).

Common to all, as to conditions: stereoisomer not certain
Data set [1] is described as follows: HILIC, Merck SeQuant ZIC-HILIC, 150 × 2.1 mm, 5 µm, 0.75 mL/min, estimated dead time 0.44 min; A: water + 0.1% acetic acid + 10 mM ammonium acetate, pH 4; B: 5% water + 95% acetonitrile + 0.1% acetic acid + 10 mM ammonium acetate, pH 4; gradient (min/%B) 0/95 5/95 20/57 25/57 30/95 40/95.
Data set [2] can be described thus: HILIC, Waters XBridge BEH Amide, 100 × 2.1 mm, 2.5 µm, 0.5 mL/min, estimated dead time 0.44 min; A: water + 0.1% acetic acid + 10 mM ammonium acetate, pH 4; B: 5% water + 95% acetonitrile + 0.1% acetic acid + 10 mM ammonium acetate, pH 4; gradient (min/%B) 0/95 5/95 20/57 25/57 30/95 40/95.
Data set [3] can be described thus: HILIC, Thermo Scientific Accucore HILIC, 100 × 2.1 mm, 2.6 µm, 0.5 mL/min, estimated dead time 0.44 min; A: water + 0.1% formic acid + 10 mM ammonium formate, pH 3; B: 5% water + 95% acetonitrile + 0.1% formic acid + 10 mM ammonium formate, pH 3; gradient (min/%B) 0/95 5/95 20/57 25/57 30/95 40/95.
The nature of data set [4]: HILIC, Merck SeQuant ZIC-HILIC, 150 × 2.1 mm, 5 µm, 0.75 mL/min, estimated dead time 0.44 min; A: water + 10 mM ammonium formate, pH 6; B: 5% water + 95% acetonitrile + 10 mM ammonium formate, pH 6; gradient (min/%B) 0/95 5/95 20/57 25/57 30/95 40/95.
A short description of data set [5]: RP, Waters ACQUITY UPLC BEH C18, 100 × 2.1 mm, 1.7 µm, 0.2 mL/min, estimated dead time 1.1 min; A: water + 0.025% formic acid + 20 mM ammonium acetate + 0.055% ammonium hydroxide, pH 7; B: methanol; gradient (min/%B) 0/5 5/5 25/100 30/100 30.1/5 35/5.
Data set [6] is described as follows: RP, Waters ACQUITY UPLC BEH C18, 100 × 2.1 mm, 1.7 µm, 0.2 mL/min, estimated dead time 1.1 min; A: water + 0.1% formic acid, pH 3; B: methanol + 0.1% formic acid, pH 3; gradient (min/%B) 0/5 5/5 25/100 30/100 30.1/5 35/5.
A short description of data set [7]: RP, Waters CORTECS T3, 100 × 2.1 mm, 2.7 µm, 0.25 mL/min, estimated dead time 0.88 min; A: water + 0.1% formic acid, pH 3; B: methanol + 0.1% formic acid, pH 3; gradient (min/%B) 0/5 5/5 25/95 25.1/100 35/100 35.1/5 45/5.
Data set [8] is described as follows: RP, Thermo Scientific Hypercarb, 150 × 2.1 mm, 5 µm, 0.1 mL/min, estimated dead time 3.3 min; A: water + 0.1% formic acid, pH 3; B: methanol + 0.1% formic acid, pH 3; gradient (min/%B) 0/5 5/5 20/100 35/100 35.1/5 45/5.
Data set [9] is described as follows: RP, Waters CORTECS T3, 100 × 2.1 mm, 2.7 µm, 0.2 mL/min, estimated dead time 1.1 min; A: water + 0.1% formic acid, pH 3; B: methanol + 0.1% formic acid, pH 3; gradient (min/%B) 0/5 5/5 25/95 25.1/100 35/100 35.1/5 45/5.
Data set [10] is described as follows: RP, Waters CORTECS T3, 100 × 2.1 mm, 2.7 µm, 0.2 mL/min, estimated dead time 1.1 min; A: water + 0.1% formic acid, pH 3; B: methanol + 0.1% formic acid, pH 3; gradient (min/%B) 0/0 1/0 6/5 30/100 35/100 35.1/0 40/0.
Data set [11] in a line: RP, Waters CORTECS T3, 100 × 2.1 mm, 2.7 µm, 0.3 mL/min, estimated dead time 0.73 min; A: water + 0.1% formic acid, pH 3; B: methanol + 0.1% formic acid, pH 3; gradient (min/%B) 0/0 5/0 25/100 30/100 30.1/0 35/0.
The nature of data set [12]: RP, Waters CORTECS T3, 100 × 2.1 mm, 2.7 µm, 0.2 mL/min, estimated dead time 1.1 min; A: water + 0.1% formic acid, pH 3; B: methanol + 0.1% formic acid, pH 3; gradient (min/%B) 0/0 1/0 6/5 30/100 35/100 35.1/0 40/0. This is another data set of the same source.
Data set [13] in a line: RP, Waters ACQUITY UPLC BEH C18, 100 × 2.1 mm, 1.7 µm, 0.1 mL/min, estimated dead time 2.2 min; A: water + 0.1% formic acid, pH 3; B: methanol + 0.1% formic acid, pH 3; gradient (min/%B) 0/5 5/5 25/100 30/100 30.1/5 35/5.
Data set [14] can be described thus: RP, Waters CORTECS T3, 100 × 2.1 mm, 2.7 µm, 0.25 mL/min, estimated dead time 0.88 min; A: water + 0.1% formic acid, pH 3; B: methanol + 0.1% formic acid, pH 3; gradient (min/%B) 0/0 1/0 6/5 30/100 35/100 35.1/0 40/0.
Data set [15] in a line: RP, Waters CORTECS T3, 100 × 2.1 mm, 2.7 µm, 0.15 mL/min, estimated dead time 1.5 min; A: water + 0.1% formic acid, pH 3; B: methanol + 0.1% formic acid, pH 3; gradient (min/%B) 0/0 1/0 6/5 30/100 35/100 35.1/0 40/0.
Data set [16] can be described thus: RP, Waters CORTECS T3, 100 × 2.1 mm, 2.7 µm, 0.3 mL/min, estimated dead time 0.73 min; A: water + 0.1% formic acid, pH 3; B: methanol + 0.1% formic acid, pH 3; gradient (min/%B) 0/0 5/0 25/100 30/100 30.1/0 35/0. This is another data set of the same source.
Data set [17] in a line: RP, Waters ACQUITY UPLC BEH C18, 100 × 2.1 mm, 1.7 µm, 0.2 mL/min, estimated dead time 1.1 min; A: water + 0.025% formic acid + 20 mM ammonium acetate + 0.055% ammonium hydroxide, pH 7; B: methanol; gradient (min/%B) 0/5 5/5 25/100 30/100 30.1/5 35/5. The source holds these as a separate data set.
Data set [18] is described as follows: RP, Waters ACQUITY UPLC BEH C18, 100 × 2.1 mm, 1.7 µm, 0.1 mL/min, estimated dead time 2.2 min; A: water + 0.1% formic acid, pH 3; B: methanol + 0.1% formic acid, pH 3; gradient (min/%B) 0/5 5/5 25/95 25.1/100 35/100 35.1/5 45/5.
A short description of data set [19]: RP, Waters CORTECS T3, 100 × 2.1 mm, 2.7 µm, 0.3 mL/min, estimated dead time 0.73 min; A: water + 0.1% formic acid, pH 3; B: methanol + 0.1% formic acid, pH 3; gradient (min/%B) 0/0 1/0 6/5 30/100 35/100 35.1/0 40/0.
Data set [20] can be described thus: RP, Waters CORTECS T3, 100 × 2.1 mm, 2.7 µm, 0.1 mL/min, estimated dead time 2.2 min; A: water + 0.1% formic acid, pH 3; B: methanol + 0.1% formic acid, pH 3; gradient (min/%B) 0/0 1/0 6/5 30/100 35/100 35.1/0 40/0.
Data set [21] is described as follows: RP, Waters ACQUITY UPLC BEH C18, 100 × 2.1 mm, 1.7 µm, 0.1 mL/min, estimated dead time 2.2 min; A: water + 0.1% formic acid, pH 3; B: methanol + 0.1% formic acid, pH 3; gradient (min/%B) 0/5 5/5 25/95 25.1/100 35/100 35.1/5 45/5. This is another data set of the same source.
The nature of data set [22]: RP, Waters CORTECS T3, 100 × 2.1 mm, 2.7 µm, 0.3 mL/min, estimated dead time 0.73 min; A: water + 0.1% formic acid, pH 3; B: methanol + 0.1% formic acid, pH 3; gradient (min/%B) 0/0 1/0 6/5 30/100 35/100 35.1/0 40/0. This is another data set of the same source.
The nature of data set [23]: RP, Waters CORTECS T3, 100 × 2.1 mm, 2.7 µm, 0.1 mL/min, estimated dead time 2.2 min; A: water + 0.1% formic acid, pH 3; B: methanol + 0.1% formic acid, pH 3; gradient (min/%B) 0/5 5/5 25/95 25.1/100 35/100 35.1/5 45/5.
Data set [24] can be described thus: RP, Waters CORTECS T3, 100 × 2.1 mm, 2.7 µm, 0.15 mL/min, estimated dead time 1.5 min; A: water + 0.1% formic acid, pH 3; B: methanol + 0.1% formic acid, pH 3; gradient (min/%B) 0/5 5/5 25/95 25.1/100 35/100 35.1/5 45/5.
The nature of data set [25]: RP, Waters ACQUITY UPLC BEH C18, 100 × 2.1 mm, 1.7 µm, 0.1 mL/min, estimated dead time 2.2 min; A: water + 0.1% formic acid, pH 3; B: methanol + 0.1% formic acid, pH 3; gradient (min/%B) 0/5 5/5 25/95 25.1/100 35/100 35.1/5 45/5. This is another data set of the same source.
Data set [26] can be described thus: RP, Waters ACQUITY UPLC BEH C18, 100 × 2.1 mm, 1.7 µm, 0.1 mL/min, estimated dead time 2.2 min; A: water + 0.045% formic acid + 0.11% ammonium hydroxide, pH 7; B: methanol; gradient (min/%B) 0/5 5/5 25/95 25.1/100 35/100 35.1/5 45/5.
A short description of data set [27]: RP, Waters CORTECS T3, 100 × 2.1 mm, 2.7 µm, 0.3 mL/min, estimated dead time 0.73 min; A: water + 0.1% formic acid, pH 3; B: methanol + 0.1% formic acid, pH 3; gradient (min/%B) 0/5 5/5 25/95 25.1/100 35/100 35.1/5 45/5.
Data set [28] is described as follows: RP, Waters CORTECS T3, 100 × 2.1 mm, 2.7 µm, 0.3 mL/min, estimated dead time 0.73 min; A: water + 0.1% formic acid, pH 3; B: methanol + 0.1% formic acid, pH 3; gradient (min/%B) 0/5 5/5 25/100 30/100 30.1/5 35/5.

For the compound `CC(O)(CC(=O)O)CC(=O)O` [3-HYDROXY-3-METHYLGLUTARATE], the LC retention time was 12.2 min in data set [1], 12.1 min in [2], 11.2 min in data set [3] and 12.8 min in data set [4].

Take `NC(C=O)C(O)C(O)C(O)COS(=O)(=O)O` [D-GLUCOSAMINE 6-SULFATE]: the LC retention time in [1] was 15.2 min; in data set [2] it was 13.1 min; in data set [3], 11.8 min; in data set [4] it was 15 min.

`CC(CCC(=O)NCC(=O)O)C1CCC2C3C(O)CC4CC(O)CCC4(C)C3CC(O)C12C` (stereo not drawn) [GLYCOCHOLATE]: the LC retention time is 19.5 min in data set [5], 21.8 min in data set [6], 9.61 min in data set [3] and 21.7 min in data set [7].

For `N[C@@H](Cc1cnc[nH]1)C(=O)O` [L-HISTIDINE], the LC retention time in data set [8] is 4.72 min; in data set [3], 14.9 min; in data set [9] it was 2.39 min.

For the compound `CCCCCCCCCCCC(=O)O` [LAURIC ACID], the LC retention time in data set [3] is 9.23 min.

As for `CC(=O)NC(CCCCN)C(=O)O` [N-ALPHA-ACETYL-L-LYSINE], the LC retention time in data set [8] was 4.9 min; in data set [10], 1.34 min; in data set [11], 0.89 min; in data set [12] it was 1.35 min; in [13], 2.69 min; in [1], 13.4 min. Besides, the LC retention time in [6] is 1.34 min; in data set [14], 1.09 min; in data set [2], 13.2 min; in [3], 13 min; in data set [15] it was 1.78 min; in data set [16], 0.89 min. For the same compound, the figures for the LC retention time in [4], in data set [9] and in data set [17] were 13.6 min, 2.64 min and 1.37 min, respectively.

Regarding `CCCCCCSCC(NC(=O)CCC(N)C(=O)O)C(=O)NCC(=O)O` (stereo not drawn) [S-HEXYL-GLUTATHIONE], the LC retention time in data set [5] is 12.8 min; in data set [18] it was 21.2 min; in [10] it was 19.5 min; in [19] it was 18.1 min; in data set [11], 16.2 min; in [12], 19.5 min. Also, the LC retention time in data set [13] was 20.6 min; in data set [20], 17.4 min; in data set [6], 17.5 min; in data set [21], 21.1 min; in data set [22] it was 18.1 min; in data set [23], 20.5 min. Also, the LC retention time in data set [14] is 18.7 min; in data set [24], 18.5 min; in data set [15], 20.8 min; in data set [25], 21.2 min; in [16], 16.2 min; in [26] it was 19.8 min. For the same compound, the LC retention time is 16.6 min in [7], 22.9 min in [9], 16 min in data set [27] and 15.6 min in data set [28].
